The subject of one data set is 231-Br-Luc cells. Put plainly: In vitro cytotoxicity (MTS assay) in brain-seeking TNBC cells. Format: cell-based, human. The settings on record: 24 hours' incubation. (Tetrazolium assays rely on reduction of a dye to a coloured formazan, in cell work by metabolically active cells.)
The subject of another data set is 231-Luc cells. Put plainly: In vitro cytotoxicity (MTS assay). In kind it is cell-based, human. As to the method: For cytotoxicity assays, 231-Luc cells were cultured in 96-well plates at 5×10^3 cells/well for 24 hours. Culture media was removed and replaced with media containing various treatment groups. […] The culture media was removed after 2 hours of incubation to mimic the clearance mechanism and replaced with fresh culture media. Cell viability was then measured after 24 hours with percent viability calculated as absorbance relative to control wells (cell with culture media). A total of 3 wells were used per treatment per concentration for each experiment.

On to `CC(=O)O[C@H]1C(=O)[C@@]2(C)[C@H]([C@H](OC(=O)c3ccccc3)[C@]3(O)C[C@H](OC(=O)[C@H](O)[C@@H](NC(=O)c4ccccc4)c4ccccc4)C(C)=C1C3(C)C)[C@]1(OC(C)=O)CO[C@@H]1C[C@@H]2O` [PTX, Paclitaxel], for which the “cell sensitivity (viability)” value in the data set with 231-Br-Luc cells is recorded as “sensitive to PTX treatment in vitro”. For the same compound, the “effect on cell viability / cytotoxicity” value with 231-Luc cells (2 hours exposure, then fresh media for 24 hours) was “only a small effect on cell viability”. Besides, the cytotoxicity entry in the data set with 231-Luc cells (24 hours in culture media) was “more potent than Abraxane™”.
